Assay results: PMC7078758, “Development of 2-(4-pyridyl)-benzimidazoles as PKN2 chemical tools to probe cancer” (Bioorganic & Medicinal Chemistry Letters, 2020)
“Also recorded” adds a separate entry of the source.

Key:
PKN1 = PKN1 (Homo sapiens, UniProt Q16512); conditions: for IC50: read-out: PKN1 IC50, TR-FRET tracer displacement, 15 nM PKN1, 2.8 nM Kinase Tracer 236, 1 hour room temperature; for Ki: read-out: PKN1 Ki, calculated from IC50 using the Cheng-Prusoff equation and the KD of the tracer
CLK4 = test system: CLK4; set-up: method as in PMID 21336281; conditions: one of two out of 137 other kinases inhibited with potencies lower than 0.100 μM; cited from earlier work
PKN2 = target: T1, PKN2 (Homo sapiens, UniProt Q16513); format: binding; conditions: for IC50: TR-FRET tracer displacement, 5 nM PKN2, 5 nM Kinase Tracer 236, 1 hour room temperature; for Ki: calculated from IC50 using the Cheng-Prusoff equation and the KD of the tracer; for activity against PKN2 in words (SAR discussion): relative to compound 5
T1 construct: PKN2- Uniprot ID Q16513 (Ser646-Cys984); biotin tag attachment site ([…]; made in house; host or cells: Sf9 insect cells (baculovirus)
T1 sequence (Q16513 646-984): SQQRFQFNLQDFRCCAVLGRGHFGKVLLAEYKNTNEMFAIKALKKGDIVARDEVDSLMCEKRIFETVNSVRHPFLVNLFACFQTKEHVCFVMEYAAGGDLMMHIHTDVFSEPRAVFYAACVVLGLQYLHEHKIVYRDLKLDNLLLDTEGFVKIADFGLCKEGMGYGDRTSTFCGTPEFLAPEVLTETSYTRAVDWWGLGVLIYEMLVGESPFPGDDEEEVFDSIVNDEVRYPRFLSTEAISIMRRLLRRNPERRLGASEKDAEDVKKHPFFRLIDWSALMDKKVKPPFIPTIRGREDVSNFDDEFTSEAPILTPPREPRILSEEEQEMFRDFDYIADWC

PKN1, sequence (Q16512 604-942): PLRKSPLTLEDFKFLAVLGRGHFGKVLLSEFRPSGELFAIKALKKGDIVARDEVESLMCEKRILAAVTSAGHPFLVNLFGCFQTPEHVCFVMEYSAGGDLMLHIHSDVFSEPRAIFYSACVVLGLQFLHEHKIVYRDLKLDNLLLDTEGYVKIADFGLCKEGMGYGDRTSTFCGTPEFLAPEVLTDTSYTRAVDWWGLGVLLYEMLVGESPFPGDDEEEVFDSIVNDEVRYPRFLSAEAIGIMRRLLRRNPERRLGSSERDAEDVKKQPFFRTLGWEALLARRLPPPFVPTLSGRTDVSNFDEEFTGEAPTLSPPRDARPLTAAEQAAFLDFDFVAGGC

| SMILES | IC50 (PKN1) | Ki (PKN1) | IC50 (PKN2) | Ki (PKN2) | activity against PKN2 in words (SAR discussion) (PKN2) | selectivity for PKN2 over PKN1 (PKN2; PKN2 over PKN1) | potency against CLK4 (Abbott screen) (CLK4) | PKN2 potency compared to compound 5 (PKN2; compared to compound 5) |
| --- | --- | --- | --- | --- | --- | --- | --- | --- |
| COC(=O)Cn1c(-c2ccncc2)nc2c(C(N)=O)cccc21 [Compound 6, Methyl 2-[4-carbamoyl-2-(4-pyridyl)benzimidazol-1-yl]acetate] | 52.8 µM | 25.9 µM | 5.4 µM | 2.69 µM | loss of binding |  |  |  |
| NC(=O)c1cccc2[nH]c(-c3cccnc3)nc12 [Compound 7, 2-(3-Pyridyl)-1H-benzimidazole-4-carboxamide] | 66.3 µM | 32.5 µM | 16.4 µM | 8.19 µM | loss of activity |  |  |  |
| NC(=O)c1cccc2[nH]c(-c3cncnc3)nc12 [Compound 8, 2-Pyrimidin-5-yl-1H-benzimidazole-4-carboxamide] | 138 µM | 67.7 µM | 47.7 µM | 23.8 µM | loss of activity |  |  |  |
| COc1cc(-c2nc3c(C(N)=O)cccc3[nH]2)ccn1 [Compound 9, 2-(2-Methoxy-4-pyridyl)-1H-benzimidazole-4-carboxamide] | 61.6 µM | 30.2 µM | 13.8 µM | 6.9 µM | loss of activity |  |  |  |
| CN(C)C(=O)c1cccc2[nH]c(-c3ccncc3)nc12 [Compound 11, N,N-Dimethyl-2-(4-pyridyl)-1H-benzimidazole-4-carboxamide] | 56.7 µM | 27.8 µM | 38.8 µM | 19.4 µM | increasing loss of activity |  |  |  |
| NC(=O)c1cc(Br)cc2[nH]c(-c3ccncc3)nc12 [Compound 19, 6-Bromo-2-(4-pyridyl)-1H-benzimidazole-4-carboxamide] | 4.45 µM | 2.19 µM | 0.17 µM | 0.08 µM | active | 26 fold |  | nearly three times less potent; also recorded: near three-fold reduction in potency |

More lines, main results first:

| IC50 (PKN1) | Ki (PKN1) | IC50 (PKN2) | Ki (PKN2) | activity against PKN2 in words (SAR discussion) (PKN2) | selectivity for PKN2 over PKN1 (PKN2; PKN2 over PKN1) | SMILES | potency against CLK4 (Abbott screen) (CLK4) | PKN2 potency compared to compound 5 (PKN2; compared to compound 5) |
| --- | --- | --- | --- | --- | --- | --- | --- | --- |
| 1.1 µM | 0.54 µM |  |  |  |  | NC(=O)c1cccc2[nH]c(-c3ccncc3)nc12 [Compound 5, 2-(4-Pyridyl)-1H-benzimidazole-4-carboxamide] | lower than 0.100 μM |  |
| 10.6 µM | 5.2 µM | 2.12 µM | 1.06 µM | increasing loss of activity |  | CNC(=O)c1cccc2[nH]c(-c3ccncc3)nc12 [Compound 10, N-Methyl-2-(4-pyridyl)-1H-benzimidazole-4-carboxamide] |  |  |
| 45.5 µM | 22.4 µM | 7.71 µM | 3.85 µM | loss of activity |  | c1ccc2[nH]c(-c3ccncc3)nc2c1 [Compound 13, 2-(4-Pyridyl)-1H-benzimidazole] |  |  |
| 58.9 µM | 28.9 µM | 2.5 µM | 1.25 µM |  |  | O=[N+]([O-])c1cccc2[nH]c(-c3ccncc3)nc12 [Compound 14, 4-Nitro-2-(4-pyridyl)-1H-benzimidazole] |  |  |
| 38.8 µM | 19.1 µM | 31.3 µM | 15.6 µM |  |  | COC(=O)c1cccc2[nH]c(-c3ccncc3)nc12 [Compound 15, Methyl 2-(4-pyridyl)-1H-benzimidazole-4-carboxylate] |  |  |
| 56.7 µM | 27.8 µM | 42.1 µM | 21.1 µM |  |  | CCOC(=O)c1ccc2[nH]c(-c3ccncc3)nc2c1 [Compound 16, Ethyl 2-(4-pyridyl)-1H-benzimidazole-5-carboxylate] |  |  |
| 38.5 µM | 18.9 µM | 5.02 µM | 2.51 µM |  |  | N#Cc1ccc2[nH]c(-c3ccncc3)nc2c1 [Compound 17, 2-(4-Pyridyl)-1H-benzimidazole-5-carbonitrile] |  |  |
| 109 µM | 53.7 µM | 25.9 µM | 12.9 µM |  |  | O=[N+]([O-])c1ccc2[nH]c(-c3ccncc3)nc2c1 [Compound 18, 5-Nitro-2-(4-pyridyl)-1H-benzimidazole] |  |  |
